The test system of assay [1] is U87MG human malignant glioma cells. Nature of the assay: In vitro antiproliferative activity, "kiss-and-run" washout experiment (30 min + washout + up to 72 h). Format: cell-based. As to the method: (§1) U87MG human malignant glioma, SK-MEL-28 human melanoma, SK-OV-3 human ovarian cancer, and A549 human lung cancer cell lines were purchased from ATCC. The cells were cultured in Dulbecco’s Modified Eagle’s Medium (DMEM; Biosera, Nuaille, France), supplemented with 10% heat-inactivated Fetal Bovine Serum (FBS; Biosera), and with 1% Penicillin/Streptomycin (Biosera). Cells were cultured in sterile T75 flasks with ventilation cap (Sarstedt, Nümbrecht, Germany) at 37 °C in a humidified atmosphere with 5% CO2 in ESCO CelCulture Incubator (ESCO, Friedberg, Germany). Manipulations with the cells were performed in biosafety cabinet (laminar) ESCO Sentinel Gold class II model AC2-4E8 (ESCO).
(§2) After standard trypsinization and harvesting cells by trypsin (Biosera), ethylenediaminetetraacetic acid (EDTA; Biosera) and PBS solution, 6×10^3 cells per well were seeded in serum containing (10%) growth medium to 96-well plates with flat bottom (Eppendorf, Hamburg, Germany), in a 100 μL volume per well, and incubated at 37°C.
(§3) In the wash out experiment, cells were incubated with the compounds (5% serum final) for 30 min, then they were washed out, and additionally incubated in growth medium (5% serum final) up to 72 h. The control wells were treated only with serum free medium (5% serum final).
(§4) For the evaluation of the in vitro antiproliferative activity of compounds, the cell viability was determined by MTT assay (3-(4,5-dimethylthiazol-2-yl)-2,5-diphenyl-tetrazolium bromide) obtained from Duchefa Biochemie (Haarlem, Netherlands).
(§5) 22 µL of MTT solution (5 mg/mL in PBS, 0.5 mg/mL final) was added to each well and after 2 h incubation at 37°C, the supernatant was removed. […] Average background absorbance (DMSO-Ethanol) was subtracted from absorbance values of control and treated wells, and cell viability was determined relative to untreated (control) wells where cell viability was arbitrarily set to 100%. […] The experiments were done in triplicate and each experiment was repeated three times.
(§6) Recently, a new protocol for evaluating the antiproliferative activity and the targeting ability of integrin-ligand based conjugates was developed by the group of Prof. […] In this procedure, which we named “kiss-and-run” experiment, after very short initial contact times (15–30 min) of the toxin with the cells in vitro, the solution is drained, and cells are resuspended in the culture medium for a 72 h incubation. This protocol is aimed at simulating the rapid clearance of the drugs that occurs in vivo in the extracellular tumor environment, thus highlighting the ability of the conjugate to bind the integrin receptor on the cell surface.

The test system of assay [2] is SK-MEL-28 human melanoma cells. The assay is described as above. Format: cell-based. The protocol:
as §1, §2, §3, §4, §5, §6

Assay [3] relates to A549 human lung cancer cells. The assay is described as above. Format: cell-based. The protocol: as §1, §2, §3, §4, §5, §6
Assay [4] concerns SK-OV-3 human ovarian cancer cells. The description is as above. It counts as cell-based. As to the method:
as §1, §2, §3, §4, §5, §6

The subject of a further assay is U87MG cells. Description: In vitro antiproliferative activity in the presence of MMP-2 inhibitor. It counts as cell-based, human. The following applies: 16 h pre-incubation with MMP-2 inhibitor 10 µM, then 72 h continuous treatment, 5% serum final; average ± SD, triplicate; read-out: IC50 MMP-2 inhibitor + Treatment 72 h U87MG (αVβ3 +). The protocol:
as §4
(§7) 22 µL of MTT solution (5 mg/mL in PBS, 0.5 mg/mL final) was added to each well and after 2 h incubation at 37°C, the supernatant was removed. The precipitated purple formazan crystals were dissolved in 100 µL of a 1:1 solution of dimethylsulfoxide (DMSO; Merck, St. Louis, MO, United States): 96% Ethanol (Molar Chemicals Kft., Halásztelek, Hungary) and the absorbance was measured after 15 min at λ = 570 nm by using microplate reader CLARIOstar Plus (BMG Labtech, Ortenberg, Germany). Average background absorbance (DMSO-Ethanol) was subtracted from absorbance values of control and treated wells, and cell viability was determined relative to untreated (control) wells where cell viability was arbitrarily set to 100%. Absorbance values of treated samples were normalized versus untreated control samples and interpolated by nonlinear regression analysis with GraphPad Prism 6 software (GraphPad, La Jolla, San Diego, CA, United States) to generate sigmoidal dose-response curves from which the 50% inhibitory concentration (IC50) values of the compounds were calculated and presented as nanomolar (nM) units. The experiments were done in triplicate and each experiment was repeated three times.
(§8) The conjugate 2 and the free MMAE were tested in presence of the MMP-2 inhibitor cis-9-octadecenoyl-N-hydroxylamine (Merck) dissolved in DMSO ([You et al., 2018]). The three αVβ3 integrin and MMP-2 overexpressing cancer cell lines (U87MG, SK-MEL-28, […]) were seeded with serum containing medium ([Ellijimi et al., 2018]; [Shim et al., 2019]) and, after 8 h, were washed-out. Then, 100 µL per well of MMP-2 inhibitor (10 µM final concentration) were added and cells were incubated for 16 h, prior to the treatment. Later, the conjugate 2 and free MMAE were dissolved in 10% serum containing medium and added to reach the same concentrations evaluated in the previous test in a final volume of 100 µL per well and incubated (5% serum final) continuously for 72 h of the treatment. The experiments were performed in triplicate.

The next assay has as its system SK-MEL-28 cells. The description is as above. The following applies: 16 h pre-incubation with MMP-2 inhibitor 10 µM, then 72 h continuous treatment, 5% serum final; average ± SD, triplicate; read-out: IC50 MMP-2 inhibitor + Treatment 72 h SK-MEL-28 (αVβ3 +). It counts as cell-based, human. As to the method: as §4, §7, §8
A further assay has as its system SK-OV-3 cells. The assay is described as above. It counts as cell-based, human. The following applies: 16 h pre-incubation with MMP-2 inhibitor 10 µM, then 72 h continuous treatment, 5% serum final; average ± SD, triplicate; read-out: IC50 MMP-2 inhibitor + Treatment 72 h SK-OV-3 (αVβ3 +). The protocol: as §4, §7, §8
[5] abbreviates: MTT, 30 min treatment, washout, further incubation up to 72 h, 5% serum final.
Setting [6] is: ratio of IC50 of 2 vs MMAE, 30 min + washout + up to 72 h.

SMILES strings stand for the structures.

As to `CC[C@H](C)[C@@H]([C@@H](CC(=O)N1CCC[C@H]1[C@H](OC)[C@@H](C)C(=O)N[C@H](C)[C@@H](O)c1ccccc1)OC)N(C)C(=O)[C@@H](NC(=O)[C@H](C(C)C)N(C)C(=O)OCc1ccc(NC(=O)CNC(=O)[C@H](CC(C)C)NC(=O)[C@@H]2CCCN2C(=O)CNC(=O)CCc2cn(CCOCCOCCOCCOCC(=O)NCc3ccc(CN4C(=O)[C@H]5CC(=O)N[C@H](C(=O)O)CC(=O)NCC(=O)N[C@@H](CCCNC(=N)N)C(=O)NC[C@H]4C(=O)N5)cc3)nn2)cc1)C(C)C` [compound 2, cyclo[DKP-isoDGR]-PEG4-GPLG-PABC-MMAE], the IC50 (usually the concentration at which inhibition is half-maximal) was 683 ± 37.1 nM in assay [1] (setting [5]); 938 ± 112 nM in assay [2] (setting [5]); 1240 ± 85.2 nM in assay [3] (MTT, 30 min treatment, washout, further incubation up to 72 h, 5% serum final, αVβ3 low expressing line); 198 ± 13.7 nM in assay [4] (setting [5]); 7.4 nM with U87MG cells; 28.7 nM in the assay with SK-MEL-28 cells. Also, in the assay on SK-OV-3 cells, the IC50 was found to be 3.2 nM. Further, the “RP [SMDC (2)/MMAE] U87MG” value in assay [1] (setting [6]) amounted to 0.32. For the same compound, the “RP [SMDC (2)/MMAE] SK-MEL-28” value in assay [2] (setting [6]) is reported as 0.67. For the same compound, the “RP [SMDC (2)/MMAE] A549” value in assay [3] (setting [6]) is reported as 4.67. In assay [4] (setting [6]), the “RP [SMDC (2)/MMAE] SK-OV-3” value is 0.97.

The values above are taken from PMC10363981, “Optimizing the enzymatic release of MMAE from isoDGR-based small molecule drug conjugate by incorporation of a GPLG-PABC enzymatically cleavable linker” (Frontiers in Pharmacology, 2023).
